Assay results reported in patent US12162893B2 (Erasca, Inc., priority 2020, dated 2024).

Target: T1, mutant G12C K-RAS (Homo sapiens, UniProt P01116, G12C)
T1 construct: made in house; host or cells: E. coli BL21
Test: covalent adduct formation (CAF) with mutant G12C K-RAS
Format: binding
Design: CAF: unit not given here
Conditions: for % CAF @ 10 μM,1 h: Table 6; for % CAF (60 min): Table 1, Pyrimidone Core-Morpholine Unsubstituted
Protocol: Embodiments disclosed herein are further illustrated by the following examples in Tables 1-4 and the Examples hereinbelow. The Tables indicate the compound number, structure, the observed mass spectral molecular weight peak, and covalent adduct formation (CAF) with a mutant G12C K-RAS after 60 minutes at a concentration of 10 micromolar.

[1] = after 60 minutes at 10 micromolar

Row | Structure (SMILES) | % CAF @ 10 μM,1 h | also measured
1 | C=CC(=O)N1C[C@H](C)N(c2nc(=O)n3c4c(c(-c5ccc(F)cc5F)c(Cl)cc24)OC[C@H]3CC2(O)CCN(C)CC2)C[C@H]1C [Example 293, (3R)-7-((2S,5R)-4-acryloyl-2,5-dimethylpiperazin-1-yl)-9-chloro-10-(2,4-difluorophenyl)-3-((4-hydroxy-1-methylpiperidin-4-yl)methyl)-2H-[1,4]oxazino[2,3,4-ij]quinazolin-5(3H)-one] | 82.4% | –
2 | C=CC(=O)N1C[C@H](C)N(c2nc(=O)n3c4c(c(-c5ccc(F)cc5F)c(Cl)cc24)OC[C@H]3CCCN2C3CCC2CN(C)C3)C[C@H]1C [Example 311, (3R)-7-((2S,5R)-4-acryloyl-2,5-dimethylpiperazin-1-yl)-9-chloro-10-(2,4-difluorophenyl)-3-(3-(3-methyl-3,8-diazabicyclo[3.2.1]octan-8-yl)propyl)-2,3-dihydro-5H-[1,4]oxazino[2,3,4-ij]quinazolin-5-one] | 64.1% | –
3 | C=CC(=O)N1CCN(c2c(C#N)c(=O)n3c4c(c(-c5c(O)cccc5F)c(Cl)cc24)OCC3)[C@@H](C)C1 [Example 39, (S)-7-((S)-4-acryloyl-2-methylpiperazin-1-yl)-9-chloro-10-(2-fluoro-6-hydroxyphenyl)-5-oxo-3,5-dihydro-2H-[1,4]oxazino[2,3,4-ij]quinoline-6-carbonitrile] | – | CAF (Table 3, Pyridone Core-Morpholine Unsubstituted, after 60 minutes at 10 micromolar): 0
4 | C=CC(=O)N1C[C@H](C)N(c2nc(=O)n3c4c(c(-c5ccc(F)cc5F)c(Cl)cc24)OC[C@@H]3Cn2cccn2)C[C@H]1C [Example 236, (3S)-3-((1H-pyrazol-1-yl)methyl)-7-((2S,5R)-4-acryloyl-2,5-dimethylpiperazin-1-yl)-9-chloro-10-(2,4-difluorophenyl)-2H-[1,4]oxazino[2,3,4-ij]quinazolin-5(3H)-one] | 60.9% | –
5 | C=CC(=O)N1C[C@H](C)N(c2nc(=O)n3c4c(c(-c5ccc(F)cc5F)c(Cl)cc24)OC[C@H]3CCCN2C[C@H]3C[C@@H]2CO3)C[C@H]1C [Example 315, (3R)-3-(3-((1R,4R)-2-oxa-5-azabicyclo[2.2.1]heptan-5-yl)propyl)-7-((2S,5R)-4-acryloyl-2,5-dimethylpiperazin-1-yl)-9-chloro-10-(2,4-difluorophenyl)-2,3-dihydro-5H-[1,4]oxazino[2,3,4-ij]quinazolin-5-one] | 89.8% | –
6 | C=CC(=O)N1C[C@H](C)N(c2nc(=O)n3c4c(c(-c5ccc(F)cc5F)c(Cl)cc24)OC[C@@H]3CCCN2CCOCC2)C[C@H]1C [Example 215, (3S)-7-((2S,5R)-4-acryloyl-2,5-dimethylpiperazin-1-yl)-9-chloro-10-(2,4-difluorophenyl)-3-(3-morpholinopropyl)-2,3-dihydro-5H-[1,4]oxazino[2,3,4-ij]quinazolin-5-one] | 91.2% | –
7 | C=C(F)C(=O)N1CCN(c2nc(=O)n3c4c(c(-c5c(O)cccc5F)c(Cl)cc24)OCC3)C[C@@H]1CC#N (atropisomer, axis not shown) [Example 10, 2-((2S)-4-(9-chloro-10-(2-fluoro-6-hydroxyphenyl)-5-oxo-3,5-dihydro-2H-[1,4]oxazino[2,3,4-ij]quinazolin-7-yl)-1-(2-fluoroacryloyl)piperazin-2-yl)acetonitrile] | – | % CAF (60 min) [1]: 8.5%
8 | C=CC(=O)N1C[C@H](C)N(c2nc(=O)n3c4c(c(-c5ccc(F)cc5F)c(Cl)cc24)O[C@@H](CCCN2CCN(C)CC2)C3)C[C@H]1C [Example 263, (2S)-7-((2S,5R)-4-acryloyl-2,5-dimethylpiperazin-1-yl)-9-chloro-10-(2,4-difluorophenyl)-2-(3-(4-methylpiperazin-1-yl)propyl)-2,3-dihydro-5H-[1,4]oxazino[2,3,4-ij]quinazolin-5-one] | 41.6% | –
9 | C=CC(=O)N1C[C@H](C)N(c2nc(=O)n3c4c(c(-c5ccc(F)cc5F)c(Cl)cc24)OC[C@H]3CN2CCC2)C[C@H]1C [Example 233, (3R)-7-((2S,5R)-4-acryloyl-2,5-dimethylpiperazin-1-yl)-3-(azetidin-1-ylmethyl)-9-chloro-10-(2,4-difluorophenyl)-2H-[1,4]oxazino[2,3,4-ij]quinazolin-5(3H)-one] | 76% | –
10 | C=CC(=O)N1C[C@H](C)N(c2nc(=O)n3c4c(c(-c5ccc(F)cc5F)c(Cl)cc24)OCC3)C[C@H]1C [Example 11, 7-((2S,5R)-4-acryloyl-2,5-dimethylpiperazin-1-yl)-9-chloro-10-(2,4-difluorophenyl)-2H-[1,4]oxazino[2,3,4-ij]quinazolin-5(3H)-one] | – | % CAF (60 min) [1]: 68%
11 | C=CC(=O)N1CCN(c2nc(=O)n3c4c(c(-c5c(O)cccc5F)c(Cl)cc24)OC[C@H]3CN2CCOCC2)[C@@H](C)C1 [Example 198, (3R,10S)-7-((S)-4-acryloyl-2-methylpiperazin-1-yl)-9-chloro-10-(2-fluoro-6-hydroxyphenyl)-3-(morpholinomethyl)-2,3-dihydro-5H-[1,4]oxazino[2,3,4-ij]quinazolin-5-one] | 100% | –
12 | C=CC(=O)N1C[C@H](C)N(c2nc(=O)n3c4c(c(-c5ccc(F)cc5F)c(Cl)cc24)OC[C@H]3CN2CCS(=O)(=O)CC2)C[C@H]1C [Example 268, (3R)-7-((2S,5R)-4-acryloyl-2,5-dimethylpiperazin-1-yl)-9-chloro-10-(2,4-difluorophenyl)-3-((1,1-dioxidothiomorpholino)methyl)-2H-[1,4]oxazino[2,3,4-ij]quinazolin-5(3H)-one] | 68% | –
13 | C=CC(=O)N1C[C@H](C)N(c2nc(=O)n3c4c(c(-c5cc(Cl)ccc5F)c(Cl)cc24)OC[C@H]3CCCN2CCOCC2)C[C@H]1C [Example 216, (3R)-7-((2S,5R)-4-acryloyl-2,5-dimethylpiperazin-1-yl)-9-chloro-10-(5-chloro-2-fluorophenyl)-3-(3-morpholinopropyl)-2,3-dihydro-5H-[1,4]oxazino[2,3,4-ij]quinazolin-5-one] | 73.8% | –
14 | C=CC(=O)N1C[C@H](C)N(c2nc(=O)n3c4c(c(-c5ccc(F)cc5F)c(Cl)cc24)OC[C@H]3CCCN2CC(F)(F)C2)C[C@H]1C [Example 298, (3R)-7-((2S,5R)-4-acryloyl-2,5-dimethylpiperazin-1-yl)-9-chloro-3-(3-(3,3-difluoroazetidin-1-yl)propyl)-10-(2,4-difluorophenyl)-2,3-dihydro-5H-[1,4]oxazino[2,3,4-ij]quinazolin-5-one] | 68% | –
15 | C=CC(=O)N1CCN(c2nc(=O)n3c4c(c(-c5c(O)cccc5F)c(Cl)cc24)OC[C@@H]3CN2CCOCC2)[C@@H](C)C1 [Example 196, (3S,10S)-7-((S)-4-acryloyl-2-methylpiperazin-1-yl)-9-chloro-10-(2-fluoro-6-hydroxyphenyl)-3-(morpholinomethyl)-2,3-dihydro-5H-[1,4]oxazino[2,3,4-ij]quinazolin-5-one] | 97.6% | –
16 | C=CC(=O)N1C[C@H](C)N(c2nc(=O)n3c4c(c(-c5ccc(F)cc5F)c(Cl)cc24)OC[C@H]3CCCN(CC(F)(F)F)C2COC2)C[C@H]1C [Example 331, (3R)-7-((2S,5R)-4-acryloyl-2,5-dimethylpiperazin-1-yl)-9-chloro-10-(2,4-difluorophenyl)-3-(3-(oxetan-3-yl(2,2,2-trifluoroethyl)amino)propyl)-2,3-dihydro-5H-[1,4]oxazino[2,3,4-ij]quinazolin-5-one] | 59.2% | –
17 | C=CC(=O)N1C[C@H](C)N(c2nc(=O)n3c4c(c(-c5ccc(F)cc5F)c(Cl)cc24)OC[C@H]3CC2CCN(CC(F)F)CC2)C[C@H]1C [Example 328, (3R)-7-((2S,5R)-4-acryloyl-2,5-dimethylpiperazin-1-yl)-9-chloro-3-((1-(2,2-difluoroethyl)piperidin-4-yl)methyl)-10-(2,4-difluorophenyl)-2H-[1,4]oxazino[2,3,4-ij]quinazolin-5(3H)-one] | 87% | –
18 | C=CC(=O)N1CCN(c2nc(=O)n3c4c(c(-c5c(O)cccc5F)c(Cl)cc24)OC[C@@H]3CN2CCC(F)(F)C2)[C@@H](C)C1 (atropisomer, axis not shown) [Example 228, (3S,10S)-7-((S)-4-acryloyl-2-methylpiperazin-1-yl)-9-chloro-3-((3,3-difluoropyrrolidin-1-yl)methyl)-10-(2-fluoro-6-hydroxyphenyl)-2,3-dihydro-5H-[1,4]oxazino[2,3,4-ij]quinazolin-5-one] | 98% | –
19 | C=CC(=O)N1C[C@H](C)N(c2nc(=O)n3c4c(c(-c5ccc(F)cc5F)c(Cl)cc24)OC[C@@H]3CN2C[C@H]3CC[C@@H](C2)N3C2COC2)C[C@H]1C [Example 290, (3S)-7-((2S,5R)-4-acryloyl-2,5-dimethylpiperazin-1-yl)-9-chloro-10-(2,4-difluorophenyl)-3-(((1R,5S)-8-(oxetan-3-yl)-3,8-diazabicyclo[3.2.1]octan-3-yl)methyl)-2H-[1,4]oxazino[2,3,4-ij]quinazolin-5(3H)-one] | 92.6% | –
20 | C=CC(=O)N1C[C@H](C)N(c2nc(=O)n3c4c(c(-c5ccc(Cl)cc5F)ccc24)OCC3)C[C@H]1C [Example 17, 7-((2S,5R)-4-acryloyl-2,5-dimethylpiperazin-1-yl)-10-(4-chloro-2-fluorophenyl)-2H-[1,4]oxazino[2,3,4-ij]quinazolin-5(3H)-one] | – | % CAF (60 min) [1]: 2%
21 | C=CC(=O)N1C[C@H](C)N(c2nc(=O)n3c4c(c(-c5ccc(F)cc5F)c(Cl)cc24)OC[C@@H]3CCCN2C[C@@H]3C[C@H]2CO3)C[C@H]1C [Example 266, (3S)-3-(3-((1S,4S)-2-oxa-5-azabicyclo[2.2.1]heptan-5-yl)propyl)-7-((2S,5R)-4-acryloyl-2,5-dimethylpiperazin-1-yl)-9-chloro-10-(2,4-difluorophenyl)-2,3-dihydro-5H-[1,4]oxazino[2,3,4-ij]quinazolin-5-one] | 59.2% | –
